Experimental data taken from patent publication US20250282742A1, “BENZOFURAN DERIVATIVES FOR TARGETING AUTOPHAGY” (Automera PTE. LTD, priority 2024, published 2025).

The compounds below were run on p62 puncta in HeLa cells (assay: p62 puncta assay (immunocytochemistry and imaging, EVOS M7000 or Operetta CLS)). Details: Homo sapiens, fold change in p62 puncta levels relative to DMSO control, 24 hr.
Type: cell-based
Protocol: HeLa cells were seeded in coated 96-well plates (10,000 cells) and allowed to adhere overnight. After 24 hours of treatment with either vehicle (DMSO) or test compounds, the media was discarded, and cells were rinsed with ice-cold 1×PBS before fixation by 4% formaldehyde or paraformaldehyde for 20 min. Cells were then washed with 1×PBS and permeabilized with 0.1% Triton X-100 in PBS for 20 min and blocked with Blocking Buffer in PBS for 1 hour. The cells were incubated thereafter for 1 hour with anti-p62 primary antibody in Blocking Buffer, followed by incubation with secondary antibody for 1 hour. DAPI dye was used to visualize nuclei of fixed cells. The blocking buffer used were 5% Fetal Bovine Serum (FBS, ThermoFIsher Scientific, 10270106) and Li-cor Intercept (PBS) Blocking Buffer (Li-cor, 927-70001). The primary antibody used was mouse anti-p62 primary antibody (Novus Biologicals, H00008878-MO1). The secondary antibodies used were goat anti-mouse Alexa Fluor Plus 488 secondary antibody (Invitrogen, GOXMS) and goat anti-mouse Alexa Fluor 488 secondary antibody (Invitrogen, A-11029). The DAPI dyes used were DAPI dye (Invitrogen, 62248) and DAPI dye (Invitrogen, D1306).
For the EVOS M7000 System, cells were imaged on the EVOS M7000 microscope using a 20× air objective (Nikon, N.A 0.45). DAPI and p62 channels were illuminated with LED light cubes using integrated hard-coated filter sets for DAPI (357/447 nm) and GFP (470/525 nm) respectively. Images were analysed for p62 puncta count on the Celeste 6.0 software.
For the Operetta CLS System, cells were imaged on the Operetta CLS using a 63× water objective on the DAPI and Alexa 488 channels. Images were analysed for p62 puncta count on the Harmony 5.1 software.
HeLa cells were treated with compounds for 24 hours to evaluate the effect of these compounds on p62 puncta activity. The resulting changes in levels of p62 puncta were assessed by imaging, either on the EVOS M7000 or Operetta CLS systems as described in experimental procedures. The fold change of p62 puncta levels induced by compound treatment relative to vehicle control (DMSO) was determined and summarized in Table 10.
`OCCNCc1ccc2cc(-c3ccccc3)oc2c1` [Compound 2, 2-(((2-phenylbenzofuran-6-yl)methyl)amino)ethan-1-ol] showed a fold induction at 5 µM greater than 2.
`OCCNCc1ccc2cc(Cc3ccc(Cl)cc3)oc2c1` [Compound 13, 2-(((2-(4-chlorobenzyl)benzofuran-6-yl)methyl)amino)ethan-1-ol] showed a fold induction at 5 µM greater than 2.
With `Cc1c(Cc2ccccc2)oc2cc(CNCCO)ccc12` [Compound 42, 2-(((2-benzyl-3-methylbenzofuran-6-yl)methyl)amino)ethan-1-ol] the fold induction at 5 µM was less than 2.
In the case of `OCCNCc1ccc2cc(CCc3ccc(F)cc3)oc2c1` [Compound 49, 2-(((2-(4-fluorophenethyl)benzofuran-6-yl)methyl)amino)ethan-1-ol], the fold induction at 5 µM is reported as greater than 2.
Work on `OCCNCc1ccc2cc(Cc3ccccc3)oc2c1` [compound 1] yielded a fold induction at 5 µM greater than 2.
`OCCNCc1ccc2cc(Cc3ccc(F)cc3)oc2c1` [compound 12] gave a fold induction at 5 µM greater than 2.
